From ChEMBL document CHEMBL5696439 (Cancer Res, 2010)
Calls of active or inactive are those of the source. The calls are words filed in the database; no cut-off is given here.

Tests used:
[1] = target: T1, mTORC2 (Homo sapiens) (UniProt P42345+Q6R327+Q9BVC4+Q9BPZ7); details: U-87 MG, dose 0.025-2 µmol/L, time 6.0 hrs
[2] = target: Tyrosine-protein kinase BTK (Homo sapiens) (UniProt Q06187); assay: Inhibition of recombinant human full-length His-tagged BTK expressed in insect cells at 2 uM using Tyr 01 as substrate measured after 1 hr by Z'-LYTE assay relative to control; details: Insect cell
[3] = target: Protein kinase C alpha type (Homo sapiens) (UniProt P17252); assay: Inhibition of recombinant human full length GST-tagged PRKCA expressed in baculovirus expression system at 2 uM using Ser/Thr 07 as substrate measured after 1 hr by Z'-LYTE assay relative to control
[4] = system: A498; assay: cells; details: Homo sapiens, A498, 72 h
Description: Antiproliferative activity against human A498 cells assessed as cell growth inhibition incubated for 3 days by MTS assay

[5] = system: HCT-116; assay: Antitumor activity against human HCT-116 cells xenografted in female nude mouse model assessed as suppression in P-AKT at S473 level at 50 mg/kg, iv administered once a week and measured at least 8 hrs by immunoblot analysis; format: functional, organism-based
[6] = target: Glycogen synthase kinase-3 beta (Homo sapiens) (UniProt P49841); assay: Inhibition of recombinant human full-length His-tagged GSK3B expressed in baculovirus expression system at 2 uM using Ser/Thr 09 as substrate measured after 1 hr by Z'-LYTE assay relative to control
[7] = system: MDA-MB-468; assay: Antiproliferative activity against human MDA-MB-468 cells assessed as cell growth inhibition incubated for 24 hrs by MTS assay; format: functional, cell-based; details: MDA-MB-468, 24 h
[8] = system: MDA-MB-361; assay: Antitumor activity against human MDA-MB-361 cells assessed as block the accumulation of HIF-1alpha in low oxygen at 0.3 micromol/L incubated for 24 hrs by immunoblot analysis; format: functional, cell-based; details: dose 0.3 µmol/L
[9] = target: Cyclin-dependent kinase 5/CDK5 activator 1 (Homo sapiens) (UniProt Q00535+Q15078); assay: Inhibition of recombinant human full-length GST/His-tagged CDK5/p35 expressed in insect cells at 2 uM using Ser/Thr 12 as substrate measured after 1 hr by Z'-LYTE assay relative to control; details: Insect cell
[10] = target: Serine/threonine-protein kinase Nek4 (Homo sapiens) (UniProt P51957); assay: Inhibition of recombinant human full length GST-tagged NEK4 expressed in insect cells at 2 uM using Ser/Thr 17 as substrate measured after 1 hr by Z'-LYTE assay relative to control; details: Insect cell
[11] = target: Ribosomal protein S6 kinase alpha-4 (Homo sapiens) (UniProt O75676); assay: Inhibition of recombinant human full length GST-tagged RPS6KA4 expressed in insect cells at 2 uM using Ser/Thr 01 as substrate measured after 1 hr by Z'-LYTE assay relative to control; details: Insect cell
[12] = target: SRSF protein kinase 3 (Homo sapiens) (UniProt Q9UPE1); assay: Inhibition of recombinant human full length GST-tagged STK23 expressed in baculovirus expression system at 2 uM using Ser/Thr 18 as substrate measured after 1 hr by Z'-LYTE assay relative to control
[13] = target: Dual specificity protein kinase CLK3 (Homo sapiens) (UniProt P49761); assay: Inhibition of recombinant human full-length GST-tagged CLK3 expressed in insect cells at 2 uM using Ser/Thr 18 as substrate measured after 1 hr by Z'-LYTE assay relative to control; details: Insect cell
[14] = system: Epidermal growth factor receptor (Homo sapiens), P00533 [L858R]; assay: Inhibition of recombinant human GST-tagged EGFR L858R mutant (668-1210 residues) expressed in insect cells at 2 uM using Tyr 04 as substrate measured after 1 hr by Z'-LYTE assay relative to control; details: Insect cell
[15] = target: Ephrin type-A receptor 4 (Homo sapiens) (UniProt P54764); assay: Inhibition of recombinant human GST-tagged EPHA4 (616-887 residues) expressed in insect cells at 2 uM using Tyr 02 as substrate measured after 1 hr by Z'-LYTE assay relative to control; details: Insect cell
[16] = system: Hepatocyte growth factor receptor (Homo sapiens), P08581 [M1250T]; assay: Inhibition of recombinant human His-tagged MET M1250T mutant (956-1390 residues) expressed in insect cells at 2 uM using Tyr 06 as substrate measured after 1 hr by Z'-LYTE assay relative to control; details: Insect cell
[17] = target: Casein kinase II subunit alpha' (Homo sapiens) (UniProt P19784); assay: Inhibition of recombinant human full-length GST-tagged CSNK2A2 expressed in insect cells at 2 uM using Ser/Thr 11 as substrate measured after 1 hr by Z'-LYTE assay relative to control; details: Insect cell
[18] = target: Casein kinase I isoform delta (Homo sapiens) (UniProt P48730); assay: Inhibition of recombinant human full-length GST-tagged CSNK1D expressed in insect cells at 2 uM using Ser/Thr 11 as substrate measured after 1 hr by Z'-LYTE assay relative to control; details: Insect cell
[19] = target: Serine/threonine-protein kinase N1 (Homo sapiens) (UniProt Q16512); assay: Inhibition of recombinant human full length GST-tagged PKN1 expressed in insect cells at 2 uM using Ser/Thr 07 as substrate measured after 1 hr by Z'-LYTE assay relative to control; details: Insect cell
[20] = system: Rat1; assay: Inhibition of mTORC2 in rat Rat1 cells assessed as reduction in AKT phosphorylation at T308 level at 0.01 to 2 uM incubated for 1 hrs in the presence of IGF-1 stimulation by immunoblot assay; format: cell-based; details: dose 0.01-2 µM
[21] = system: Proto-oncogene tyrosine-protein kinase receptor Ret (Homo sapiens), P07949 [Y791F]; assay: Inhibition of recombinant human GST-tagged RET Y791F mutant (658-1114 residues) expressed in baculovirus expression system at 2 uM using Tyr 02 as substrate measured after 1 hr by Z'-LYTE assay relative to control
[22] = target: Interleukin-1 receptor-associated kinase 4 (Homo sapiens) (UniProt Q9NWZ3); assay: Inhibition of recombinant human full-length His-tagged IRAK4 expressed in insect cells at 2 uM using Ser/Thr 07 as substrate measured after 1 hr by Z'-LYTE assay relative to control; details: Insect cell
[23] = target: T1, mTORC2 (Homo sapiens); details: PC3MM2, dose 0.1-1 µM, time 6.0 hrs
[24] = target: Serine/threonine-protein kinase Chk2 (Homo sapiens) (UniProt O96017); assay: Inhibition of recombinant human full-length His-tagged CHEK2 expressed in baculovirus expression system at 2 uM using Ser/Thr 07 as substrate measured after 1 hr by Z'-LYTE assay relative to control
[25] = target: Serine/threonine-protein kinase 3 (Homo sapiens) (UniProt Q13188); assay: Inhibition of recombinant human full length GST-tagged STK3 expressed in insect cells at 2 uM using Ser/Thr 07 as substrate measured after 1 hr by Z'-LYTE assay relative to control; details: Insect cell

Ephrin type-A receptor 4 (Homo sapiens), sequence (P54764 whole entry, the tested form may be a part): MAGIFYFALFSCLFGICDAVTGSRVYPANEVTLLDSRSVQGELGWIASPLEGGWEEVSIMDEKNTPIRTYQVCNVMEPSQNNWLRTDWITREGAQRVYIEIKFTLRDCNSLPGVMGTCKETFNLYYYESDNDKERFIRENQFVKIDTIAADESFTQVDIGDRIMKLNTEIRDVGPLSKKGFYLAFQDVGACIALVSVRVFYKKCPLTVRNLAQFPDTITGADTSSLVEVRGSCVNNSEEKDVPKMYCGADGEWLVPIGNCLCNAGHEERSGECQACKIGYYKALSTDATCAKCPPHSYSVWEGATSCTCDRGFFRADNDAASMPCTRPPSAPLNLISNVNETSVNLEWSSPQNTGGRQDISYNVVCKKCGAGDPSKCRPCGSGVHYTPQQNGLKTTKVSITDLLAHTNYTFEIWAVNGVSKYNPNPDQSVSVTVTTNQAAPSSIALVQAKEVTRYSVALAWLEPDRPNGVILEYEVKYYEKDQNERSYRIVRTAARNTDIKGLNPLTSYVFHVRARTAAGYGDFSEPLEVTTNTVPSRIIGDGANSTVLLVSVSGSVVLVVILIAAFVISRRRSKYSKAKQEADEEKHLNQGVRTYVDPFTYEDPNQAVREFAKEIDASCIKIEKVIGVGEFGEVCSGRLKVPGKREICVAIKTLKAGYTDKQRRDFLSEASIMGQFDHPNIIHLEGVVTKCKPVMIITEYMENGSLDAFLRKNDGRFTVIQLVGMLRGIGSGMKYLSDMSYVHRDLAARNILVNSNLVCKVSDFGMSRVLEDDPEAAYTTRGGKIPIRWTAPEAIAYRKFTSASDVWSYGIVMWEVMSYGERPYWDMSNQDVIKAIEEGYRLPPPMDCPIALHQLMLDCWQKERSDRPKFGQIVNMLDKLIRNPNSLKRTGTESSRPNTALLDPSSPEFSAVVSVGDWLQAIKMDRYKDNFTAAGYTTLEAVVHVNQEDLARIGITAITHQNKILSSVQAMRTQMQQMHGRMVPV
SRSF protein kinase 3 (Homo sapiens), sequence (Q9UPE1 whole entry): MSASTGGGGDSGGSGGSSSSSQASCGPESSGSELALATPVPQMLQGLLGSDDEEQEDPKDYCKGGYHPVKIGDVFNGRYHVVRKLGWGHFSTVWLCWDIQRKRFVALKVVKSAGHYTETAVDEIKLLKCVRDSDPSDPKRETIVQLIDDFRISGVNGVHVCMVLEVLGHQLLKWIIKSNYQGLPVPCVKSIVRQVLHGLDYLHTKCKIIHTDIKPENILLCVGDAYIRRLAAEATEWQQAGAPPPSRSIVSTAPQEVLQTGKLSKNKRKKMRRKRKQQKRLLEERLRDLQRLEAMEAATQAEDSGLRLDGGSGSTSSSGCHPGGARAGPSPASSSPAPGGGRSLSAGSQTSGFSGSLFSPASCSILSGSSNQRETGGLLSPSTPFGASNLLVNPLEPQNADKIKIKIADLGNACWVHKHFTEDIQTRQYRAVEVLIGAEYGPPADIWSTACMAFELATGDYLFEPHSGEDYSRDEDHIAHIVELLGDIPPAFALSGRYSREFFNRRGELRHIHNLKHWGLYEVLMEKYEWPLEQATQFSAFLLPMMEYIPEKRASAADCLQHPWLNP
Epidermal growth factor receptor (Homo sapiens), P00533 [L858R], sequence (P00533 whole entry L858R, the tested form may be a part): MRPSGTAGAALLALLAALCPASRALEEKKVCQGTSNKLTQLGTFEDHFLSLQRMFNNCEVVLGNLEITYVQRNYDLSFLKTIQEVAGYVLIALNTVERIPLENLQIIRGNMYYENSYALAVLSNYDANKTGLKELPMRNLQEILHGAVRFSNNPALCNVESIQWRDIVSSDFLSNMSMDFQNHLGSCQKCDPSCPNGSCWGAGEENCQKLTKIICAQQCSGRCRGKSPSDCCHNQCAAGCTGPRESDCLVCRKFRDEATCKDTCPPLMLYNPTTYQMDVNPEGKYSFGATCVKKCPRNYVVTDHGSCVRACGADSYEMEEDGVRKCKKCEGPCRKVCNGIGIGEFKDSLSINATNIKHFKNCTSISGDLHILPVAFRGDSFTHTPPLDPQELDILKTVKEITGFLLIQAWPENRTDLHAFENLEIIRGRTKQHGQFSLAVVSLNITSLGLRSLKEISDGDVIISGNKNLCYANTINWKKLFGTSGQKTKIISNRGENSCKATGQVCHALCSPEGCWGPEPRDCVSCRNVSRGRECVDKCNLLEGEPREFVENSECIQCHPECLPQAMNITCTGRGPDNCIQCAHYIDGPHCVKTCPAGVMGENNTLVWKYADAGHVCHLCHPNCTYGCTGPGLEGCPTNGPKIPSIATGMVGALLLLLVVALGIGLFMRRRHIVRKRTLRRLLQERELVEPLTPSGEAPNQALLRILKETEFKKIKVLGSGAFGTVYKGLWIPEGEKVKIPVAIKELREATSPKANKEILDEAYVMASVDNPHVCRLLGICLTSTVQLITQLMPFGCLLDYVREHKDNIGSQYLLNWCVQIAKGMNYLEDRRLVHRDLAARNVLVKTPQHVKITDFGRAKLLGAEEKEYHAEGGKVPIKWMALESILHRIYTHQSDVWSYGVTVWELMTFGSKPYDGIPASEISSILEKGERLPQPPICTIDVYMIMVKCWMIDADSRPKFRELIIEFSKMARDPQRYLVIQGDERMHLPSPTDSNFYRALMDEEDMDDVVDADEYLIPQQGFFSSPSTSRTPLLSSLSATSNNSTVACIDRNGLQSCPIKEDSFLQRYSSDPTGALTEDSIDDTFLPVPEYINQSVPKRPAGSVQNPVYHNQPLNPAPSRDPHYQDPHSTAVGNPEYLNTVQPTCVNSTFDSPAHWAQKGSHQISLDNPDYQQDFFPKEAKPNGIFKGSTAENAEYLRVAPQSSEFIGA
Ribosomal protein S6 kinase alpha-4 (Homo sapiens), sequence (O75676 whole entry, looked up): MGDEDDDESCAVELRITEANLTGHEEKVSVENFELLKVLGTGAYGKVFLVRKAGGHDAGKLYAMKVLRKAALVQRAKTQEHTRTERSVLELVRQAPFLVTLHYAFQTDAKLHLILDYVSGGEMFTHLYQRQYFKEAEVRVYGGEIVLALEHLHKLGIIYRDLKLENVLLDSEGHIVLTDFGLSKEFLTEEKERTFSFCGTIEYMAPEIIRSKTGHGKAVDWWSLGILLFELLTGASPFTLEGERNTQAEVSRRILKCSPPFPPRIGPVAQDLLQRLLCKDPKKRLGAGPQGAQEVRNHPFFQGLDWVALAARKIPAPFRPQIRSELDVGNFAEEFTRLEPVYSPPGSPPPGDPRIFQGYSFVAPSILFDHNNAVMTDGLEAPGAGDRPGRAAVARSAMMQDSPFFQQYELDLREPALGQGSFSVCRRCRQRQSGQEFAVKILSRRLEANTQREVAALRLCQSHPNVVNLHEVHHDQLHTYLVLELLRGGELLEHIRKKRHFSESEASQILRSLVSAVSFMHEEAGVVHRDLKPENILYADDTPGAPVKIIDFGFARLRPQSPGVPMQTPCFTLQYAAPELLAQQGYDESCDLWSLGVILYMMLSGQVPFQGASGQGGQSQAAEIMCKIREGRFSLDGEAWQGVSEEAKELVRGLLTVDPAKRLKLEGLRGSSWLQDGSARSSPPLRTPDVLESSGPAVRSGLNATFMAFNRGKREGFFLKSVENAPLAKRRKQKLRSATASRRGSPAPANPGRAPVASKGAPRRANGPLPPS
Serine/threonine-protein kinase Chk2 (Homo sapiens), sequence (O96017 whole entry): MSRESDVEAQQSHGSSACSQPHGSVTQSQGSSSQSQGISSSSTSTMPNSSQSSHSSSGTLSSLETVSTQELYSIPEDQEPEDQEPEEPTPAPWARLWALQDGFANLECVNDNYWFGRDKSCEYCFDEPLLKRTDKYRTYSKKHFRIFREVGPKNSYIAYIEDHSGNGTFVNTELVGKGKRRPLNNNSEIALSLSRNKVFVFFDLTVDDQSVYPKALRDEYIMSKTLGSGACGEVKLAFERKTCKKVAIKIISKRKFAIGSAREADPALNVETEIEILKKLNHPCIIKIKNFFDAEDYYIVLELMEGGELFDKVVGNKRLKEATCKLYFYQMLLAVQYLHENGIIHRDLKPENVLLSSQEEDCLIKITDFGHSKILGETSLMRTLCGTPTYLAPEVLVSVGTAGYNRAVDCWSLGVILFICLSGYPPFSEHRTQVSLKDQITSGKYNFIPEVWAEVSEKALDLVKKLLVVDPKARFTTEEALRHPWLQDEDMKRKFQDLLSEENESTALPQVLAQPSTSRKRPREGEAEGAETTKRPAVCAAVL
Interleukin-1 receptor-associated kinase 4 (Homo sapiens), sequence (Q9NWZ3 whole entry): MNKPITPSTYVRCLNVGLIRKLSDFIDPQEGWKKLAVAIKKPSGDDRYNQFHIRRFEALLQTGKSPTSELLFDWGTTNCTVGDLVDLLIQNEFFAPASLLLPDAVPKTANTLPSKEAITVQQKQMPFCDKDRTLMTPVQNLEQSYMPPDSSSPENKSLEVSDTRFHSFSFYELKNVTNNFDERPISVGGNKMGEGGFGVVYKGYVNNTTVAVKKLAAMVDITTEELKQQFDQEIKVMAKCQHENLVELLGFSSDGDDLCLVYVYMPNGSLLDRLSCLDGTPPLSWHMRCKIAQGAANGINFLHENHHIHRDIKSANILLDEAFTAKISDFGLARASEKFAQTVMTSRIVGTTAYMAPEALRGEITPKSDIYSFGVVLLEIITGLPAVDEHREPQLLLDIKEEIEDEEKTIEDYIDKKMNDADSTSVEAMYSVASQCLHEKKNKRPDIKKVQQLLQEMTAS
Dual specificity protein kinase CLK3 (Homo sapiens), sequence (P49761 whole entry, looked up, the tested form may be a part): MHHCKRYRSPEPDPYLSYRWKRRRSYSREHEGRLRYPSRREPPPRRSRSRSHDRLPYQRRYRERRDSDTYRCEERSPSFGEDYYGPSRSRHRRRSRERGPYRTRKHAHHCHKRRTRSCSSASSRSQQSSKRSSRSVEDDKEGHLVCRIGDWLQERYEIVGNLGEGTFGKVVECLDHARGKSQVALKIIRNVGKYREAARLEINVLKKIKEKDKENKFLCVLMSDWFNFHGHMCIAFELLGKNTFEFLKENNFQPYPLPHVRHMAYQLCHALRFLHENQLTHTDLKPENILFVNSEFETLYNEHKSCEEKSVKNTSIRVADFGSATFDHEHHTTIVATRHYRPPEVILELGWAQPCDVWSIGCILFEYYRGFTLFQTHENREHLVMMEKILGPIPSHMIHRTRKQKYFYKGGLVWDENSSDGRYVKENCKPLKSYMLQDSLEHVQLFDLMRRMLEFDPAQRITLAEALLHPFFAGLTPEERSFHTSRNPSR

CNC(=O)Nc1ccc(-c2nc(N3CC4CCC(C3)O4)c3cnn(C4CCC5(CC4)OCCO5)c3n2)cc1
inhibition [1]: inactive | inhibition [2]: 3% | inhibition [3]: 10% | IC50 [4]: 100 nM | Activity [5]: Active | inhibition [6]: 1% | IC50 [7]: 25 nM | Activity [8]: Active | inhibition [9]: -4% | inhibition [10]: 7% | inhibition [11]: 1% | inhibition [12]: 6% | inhibition [13]: 2% | inhibition [14]: 3% | inhibition [15]: -1% | inhibition [16]: 1% | inhibition [17]: 3% | inhibition [18]: 2% | inhibition [19]: 14% | inhibition [20]: inactive | inhibition [21]: 2% | inhibition [22]: 3% | inhibition [23]: Active | inhibition [24]: 3% | inhibition [25]: 0%
